Entries after “also recorded” stand apart in the source; their conditions may differ.
Legend:
[1] = clinical trial, indirect calorimetry (energy expenditure and substrate oxidation); format: in vivo, human; settings: for energy expenditure compared to placebo / fat oxidation compared to placebo: healthy men, time standardized AUC after ingestion; for energy expenditure compared to placebo: single ingestion in 200 ml tomato juice (1 mg capsaicin, 70 mg cinnamaldehyde, 200 μl CF); for fat oxidation compared to placebo: single ingestion in 200 ml tomato juice; for higher post-prandial fat oxidation compared to placebo, magnitude: over the period of the experiment (90 min), capsaicin 1 mg/200 ml, cinnamaldehyde 70 mg/200 ml
Experimental: Participants. Participants were healthy men with 19<BMI<25 and 60 kg minimum body weight. The age was in the 20-50 range. Participants had to like spicy food but are moderate spicy food eaters. Screening of candidates was done through a questionnaire on spicy food habits. The clinical trial we approved by a competent ethics committee (Commission cantonale (VD) d'Etique pour recherché sur l'Etre Humain) and participants gave their written informed consent. This trial was conducted according to the principles and rules laid down in the Declaration of Helsinki and its subsequent amendments. The presented study was a double-blinded, balanced, randomized, cross-over, placebo-controlled clinical trial. For each measure, the subjects had tested after an over-night fast. They had been requested to use their car or public transportation to come to the investigation site in order to keep morning physical activity level as low as possible. Moreover, consumption of caffeine was not permitted after the lunch meal (12 p.m.) before each session, and participants had been asked to refrain their spice consumption for two days prior each session. Each sample was evaluated in two different sessions A and B, with the same design but different recordings (FIG. 1A). Each session started at 8:00 a.m. with a 30 minutes rest period and measurement preparation. During all the testing sessions, subjects were seated comfortably. Room temperature was in the 20 to 22° C. range. Subjects were instructed to remain quiet and still, but they were allowed to watch TV. Parameters were recorded 30 minutes before and 90 minutes after ingestion of each sample (FIG. 1A). Treatment. All active TRP agonists were in 200 ml liquid tomato juice ([…]) at room temperature and served with a slice of bread. Placebo was 200 ml Commercial tomato juice. Active ingredients per 200 ml were 1 mg of Capsaicin (Spectrum chemicals), 0.2 ml of Givaudan cooling flavor (QB-113-979-5) or 70 mg of Cinnamaldehyde (Sigma). All ingredients were in vitro validated in cell lines expressing hTRPV1, hTRPA1 or hTRPM8 according to the calcium imaging method described in Riera et al, 2009 (FIG. 2). Energy expenditure was measured using indirect calorimetry. Indirect calorimetry is a measure of respiratory gas exchange (oxygen consumption and carbon dioxide production), which estimates the amount of calories “burned.” This measurement was performed with the MAX-II device (Max II metabolic system, AEI technologies, Naperville, Ill., USA). The equation used by the MAX-II device to evaluate energy expenditure is the simplified Weir formula: REE=(3.941×VO2)+(1.106×VCO2), where: After answering questions from the compliance questionnaire, participants were comfortably installed in semi-recumbent position in a reclining bed, at an angle allowing the participant to ingest the test solution without having to adjust position between metabolic rate measurement periods and treatment ingestion. A canopy was installed over participant's head. Test started 08:30 a.m. following a stabilization period allowing FeCO2 values to reach physiologic range. Substrate oxidation (carbohydrates and fat utilization) and the respiratory quotient (RQ) were calculated using the VO2 and VCO2 values obtained from the MAX-II device during the same timeline than energy expenditure. VO2 and VCO2 values were corrected for protein oxidation. The following equations were used to calculate the amount of fat and carbohydrates oxidized (Dietary Reference Intakes for Energy, Carbohydrate, Fiber, Fat, Fatty Acids, Cholesterol, Protein, and Amino Acids (Macronutrients) (2002/2005) National Academies Press, pp. 633-645): All endpoints have been analyzed using a linear mixed model to take into account the correlation between repeated measures. […]

[2] = clinical trial, facial thermography with infrared camera; format: in vivo, human; parameters: AUC Difference of the temperature vs placebo: unit not given beside the values; settings: for nose temperature after intake: Zone-2 (nose), over the 15 minutes post-ingestion, FIG. 4A; for cheek temperature after intake: Zone-12 (cheeks), immediately after intake, FIG. 4B
Experimental: Participants. Participants were healthy men with 19<BMI<25 and 60 kg minimum body weight. The age was in the 20-50 range. Participants had to like spicy food but are moderate spicy food eaters. Screening of candidates was done through a questionnaire on spicy food habits. The clinical trial we approved by a competent ethics committee (Commission cantonale (VD) d'Etique pour recherché sur l'Etre Humain) and participants gave their written informed consent. This trial was conducted according to the principles and rules laid down in the Declaration of Helsinki and its subsequent amendments.
The presented study was a double-blinded, balanced, randomized, cross-over, placebo-controlled clinical trial. For each measure, the subjects had tested after an over-night fast. They had been requested to use their car or public transportation to come to the investigation site in order to keep morning physical activity level as low as possible. Moreover, consumption of caffeine was not permitted after the lunch meal (12 p.m.) before each session, and participants had been asked to refrain their spice consumption for two days prior each session. Each sample was evaluated in two different sessions A and B, with the same design but different recordings (FIG. 1A).
Each session started at 8:00 a.m. with a 30 minutes rest period and measurement preparation. During all the testing sessions, subjects were seated comfortably. Room temperature was in the 20 to 22° C. range. Subjects were instructed to remain quiet and still, but they were allowed to watch TV. Parameters were recorded 30 minutes before and 90 minutes after ingestion of each sample (FIG. 1A).
Treatment. All active TRP agonists were in 200 ml liquid tomato juice (Granini) at room temperature and served with a slice of bread. Placebo was 200 ml Commercial tomato juice. Active ingredients per 200 ml were 1 mg of Capsaicin (Spectrum chemicals), 0.2 ml of Givaudan cooling flavor (QB-113-979-5) or 70 mg of Cinnamaldehyde (Sigma). All ingredients were in vitro validated in cell lines expressing hTRPV1, hTRPA1 or hTRPM8 according to the calcium imaging method described in Riera et al, 2009 (FIG. 2).
Facial thermography. In this study, infrared thermal imaging of the face has been used as an exploratory, non-invasive recording method of sympathetic nervous system activity. Using a FLIR A325 infrared camera (FLIR Systems, Inc) subjects were continuously recorded at a distance of ˜1 m. They were comfortably installed in a chair with the head maintained fixed on a chin-rest support, to facilitate the further image analysis. Room temperature was in the 20 to 22° C. range. The camera FLIR A325 is equipped with a 25° lens, resolution is 320×240 pixels, and sensitivity is 0.05° C. and accuracy±2° C. The recording was performed by acquiring 1 image/second. Thermographic imaging software, FLIR ResearchIR is used to acquire images.
Facial thermography data were extracted using in-home algorithms developed within the Matlab framework (The Mathworks Inc., Natick, Mass., USA). First, a graphical user interface (GUI) was created to help defining manually a temperature threshold highlighting primarily subject's faces. An alignment of the face was then computed and twelve regions of interest (ROIs) drawn manually using the GUI (FIG. 1B). Face alignment/orientation correction was computed image by image by first creating a binary mask using the manually set temperature threshold. Holes in the binary mask were filled and the region with the greatest continuous area was selected. The selected region centroid was determined using the built-in Matlab region properties tool (regionprops). With the same tool, an ellipse was fitted within the region to obtain the angular orientation of the ellipse's major axis compared to the x-axis. […]

[3] = literature (Ludy et al. 2011); cited from earlier work
hTRPA1 = target: T1, hTRPA1 (Homo sapiens, UniProt O75762); experiment: in vitro validation in cell lines expressing hTRPA1, calcium imaging; format: cell-based; settings: human TRPA1, in vitro, data not shown
T1 construct: expressed in transfected cells
Experimental: Treatment. All active TRP agonists were in 200 ml liquid tomato juice ([…]) at room temperature and served with a slice of bread. Placebo was 200 ml Commercial tomato juice. Active ingredients per 200 ml were 1 mg of Capsaicin (Spectrum chemicals), 0.2 ml of Givaudan cooling flavor (QB-113-979-5) or 70 mg of Cinnamaldehyde (Sigma). All ingredients were in vitro validated in cell lines expressing hTRPV1, hTRPA1 or hTRPM8 according to the calcium imaging method described in Riera et al, 2009 (FIG. 2). The objective of this trial was to assess if the stimulation of TRPA1 and TRPM8 pathways could be as efficient at impacting the energy balance as is the simulation of TRPV1 by capsaicin or capsiate. Based on the literature, we selected the most representative TRPA1 agonist: cinnamaldehyde activating specifically the mouse variant of TRPA1 with an EC50 of 60 μM, its specificity on the human form of the receptor has been confirmed in vitro (data not shown). In order to identify an efficient and specific agonist of hTRPM8, different ingredients with cooling properties have been evaluated in vitro. A cooling flavor (CF) provided by Givaudan, activating specifically hTRPM8 with an EC50 of 0.07% (FIG. 2) has been selected. As a positive control, capsaicin was evaluated in parallel to cinnamaldehyde and CF in this trial.

mouse variant of TRPA1 = mouse variant of TRPA1 (Mus musculus, UniProt Q8BLA8); settings: mouse variant of TRPA1, based on the literature; cited from earlier work
[4] = Zone 1, all period post ingestion
[5] = Zone 2 (nose), all period post ingestion
[6] = Zone 3, all period post ingestion
[7] = Zone 4, all period post ingestion
[8] = Zone 5, all period post ingestion
[9] = Zone 6, all period post ingestion
[10] = Zone 7, all period post ingestion
[11] = Zone 8, all period post ingestion
[12] = Zone 9, all period post ingestion
[13] = Zone 10 (chin), all period post ingestion
[14] = Zone 11, all period post ingestion
[15] = Zone 12 (cheeks), all period post ingestion

T1 sequence (O75762 whole entry): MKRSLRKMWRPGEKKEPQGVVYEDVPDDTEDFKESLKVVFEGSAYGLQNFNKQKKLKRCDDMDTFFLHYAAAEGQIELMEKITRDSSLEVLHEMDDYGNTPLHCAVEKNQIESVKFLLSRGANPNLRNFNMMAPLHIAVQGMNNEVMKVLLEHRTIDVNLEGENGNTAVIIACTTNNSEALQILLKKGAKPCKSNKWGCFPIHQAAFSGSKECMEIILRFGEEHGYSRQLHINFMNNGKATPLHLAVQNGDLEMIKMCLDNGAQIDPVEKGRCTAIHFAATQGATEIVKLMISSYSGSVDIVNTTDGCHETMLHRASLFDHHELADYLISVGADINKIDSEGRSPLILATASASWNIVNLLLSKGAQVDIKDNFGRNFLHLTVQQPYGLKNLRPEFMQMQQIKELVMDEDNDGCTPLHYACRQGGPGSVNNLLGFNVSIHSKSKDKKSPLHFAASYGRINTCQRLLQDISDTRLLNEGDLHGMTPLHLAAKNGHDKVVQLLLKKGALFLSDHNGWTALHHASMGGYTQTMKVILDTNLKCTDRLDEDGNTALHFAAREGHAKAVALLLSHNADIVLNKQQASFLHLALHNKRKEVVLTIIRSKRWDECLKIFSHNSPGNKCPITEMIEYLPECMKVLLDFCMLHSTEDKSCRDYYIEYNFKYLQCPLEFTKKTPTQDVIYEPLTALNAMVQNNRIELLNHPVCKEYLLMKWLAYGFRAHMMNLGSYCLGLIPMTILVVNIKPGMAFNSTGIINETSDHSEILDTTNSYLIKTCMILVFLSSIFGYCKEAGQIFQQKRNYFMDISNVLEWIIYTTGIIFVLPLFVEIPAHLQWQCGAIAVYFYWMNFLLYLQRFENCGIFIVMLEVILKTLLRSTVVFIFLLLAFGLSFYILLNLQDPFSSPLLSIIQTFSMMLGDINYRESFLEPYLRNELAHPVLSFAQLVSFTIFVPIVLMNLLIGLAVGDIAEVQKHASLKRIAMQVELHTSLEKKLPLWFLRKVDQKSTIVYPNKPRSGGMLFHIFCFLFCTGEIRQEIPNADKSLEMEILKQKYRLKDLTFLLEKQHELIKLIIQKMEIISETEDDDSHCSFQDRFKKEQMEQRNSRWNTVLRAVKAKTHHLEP

COc1cc(CNC(=O)CCCC/C=C/C(C)C)ccc1O [capsaicin]
energy expenditure compared to placebo [1]: no significant differences | fat oxidation compared to placebo [1]: higher level of fat oxidation | higher post-prandial fat oxidation compared to placebo, magnitude [1]: about 556.2 mg | AUC Difference of the temperature vs placebo [2, 4]: 18.584 | AUC Difference of the temperature vs placebo [2, 5]: 54.439 | AUC Difference of the temperature vs placebo [2, 6]: 16.959 | AUC Difference of the temperature vs placebo [2, 7]: 14.893 | AUC Difference of the temperature vs placebo [2, 8]: 8.126 | AUC Difference of the temperature vs placebo [2, 9]: 13.186 | AUC Difference of the temperature vs placebo [2, 10]: 9.255 | AUC Difference of the temperature vs placebo [2, 11]: 12.469 | AUC Difference of the temperature vs placebo [2, 12]: 26.056 | AUC Difference of the temperature vs placebo [2, 13]: 25.26 | AUC Difference of the temperature vs placebo [2, 14]: 3.299 | AUC Difference of the temperature vs placebo [2, 15]: 22.575 | nose temperature after intake [2]: significant increase; also recorded: increase nose temperature | efficient doses for increasing energy expenditure and fat oxidation [3]: ≥ 20 mg

O=CC=Cc1ccccc1 [cinnamaldehyde]
specificity on the human form of the receptor (hTRPA1): confirmed | energy expenditure compared to placebo [1]: increases energy expenditure | fat oxidation compared to placebo [1]: higher level of fat oxidation | higher post-prandial fat oxidation compared to placebo, magnitude [1]: ~512.7 mg | AUC Difference of the temperature vs placebo [2, 4]: 22.396 | AUC Difference of the temperature vs placebo [2, 5]: 42.064 | AUC Difference of the temperature vs placebo [2, 6]: 30.816 | AUC Difference of the temperature vs placebo [2, 7]: 22.118 | AUC Difference of the temperature vs placebo [2, 8]: 14.065 | AUC Difference of the temperature vs placebo [2, 9]: 21.144 | AUC Difference of the temperature vs placebo [2, 10]: 18.856 | AUC Difference of the temperature vs placebo [2, 11]: 18.384 | AUC Difference of the temperature vs placebo [2, 12]: 18.947 | AUC Difference of the temperature vs placebo [2, 13]: 34.072 | AUC Difference of the temperature vs placebo [2, 14]: 18.237 | AUC Difference of the temperature vs placebo [2, 15]: 26.571 | nose temperature after intake [2]: significant increase; also recorded: increase nose temperature | chin temperature compared to placebo ([2]; Zone-10 (chin), prolonged time after ingestion, adjusted p-value 0.0486): increases chin temperature | cheek temperature after intake [2]: increases unilaterally cheek temperature | cheek temperature after intake ([2]; listed as Cinnamaldehyde): increased temperature | EC50 (mouse variant of TRPA1): 60 µM
